Molecular target: T1, IL-17A/A (Homo sapiens, UniProt Q16552)
T1 construct: purchased Genscript Z03228
T1 sequence (Q16552 24-155): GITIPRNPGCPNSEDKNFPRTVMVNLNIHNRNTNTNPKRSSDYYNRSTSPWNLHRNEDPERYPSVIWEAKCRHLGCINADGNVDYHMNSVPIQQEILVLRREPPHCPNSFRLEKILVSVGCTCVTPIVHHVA
Assay: IL-17A/A HEK-Blue Cell Assay
Type: cell-based
Conditions: not given

Structure (SMILES)	IC50 [nM]
CCc1nonc1C(=O)N[C@H](C(=O)Nc1ccc([C@H](C)[C@@H](NC(=O)CF)C(=O)N2CCN(C)[C@@H](C)C2)cc1F)[C@H]1CC[C@H](C)CC1 [Compound 510]	10 to 100

Same assay, conditions: HEK-Blue IL-17A reporter cell line, SEAP readout at A630, 20 hours incubation with IL-17A/A; top concentration 10 uM, 1 uM or 0.3 uM

Structure (SMILES)	IL-17A/A inhibition (pIC50)
CCc1nonc1C(=O)N[C@H](C(=O)Nc1ccc([C@H](C)[C@@H](NC(C)=O)C(=O)N2CCN(C)[C@@H](C)C2)cc1F)[C@H]1CC[C@H](C)CC1 [Compound 511]	A (compounds having a pIC50 of greater than or equal 8 as A)
CCc1nonc1C(=O)N[C@H](C(=O)Nc1ccc([C@H](C)[C@@H](NC(=O)C(F)F)C(=O)N2CCN(C)[C@@H](C)C2)cc1F)[C@H]1CC[C@H](C)CC1 [Compound 512]	B (8>B≥7 as B)
CCC(=O)N[C@@H](C(=O)N1CCN(C)CC1)[C@@H](C)c1ccc(NC(=O)C(NC(=O)c2ccnn2CC)C(C)c2ccccc2Cl)c(F)c1 (some centres unmarked) [Compound 519]	X3a (compounds were evaluated up to 0.3 uM and did not inhibit activity by >80%, however they showed some activity at 0.3 uM (less than 80% and more than 20%))
CCC(=O)N[C@@H](C(=O)N1CCN(C)CC1)[C@@H](C)c1ccc(NC(=O)C(NC(=O)c2ccnn2CC)C(C)c2ccccc2Cl)c(F)c1 (some centres unmarked) [Compound 520]	X1b (compounds were evaluated up to 10 uM and inhibited activity at 10 uM by less than 20%)
CCC(=O)N[C@@H](C(=O)N1CCN(C)CC1)[C@@H](C)c1ccc(NC(=O)C(NC(=O)c2nonc2CC)C(C)c2ccccc2Cl)c(F)c1 (some centres unmarked) [Compound 522]	X1b (compounds were evaluated up to 10 uM and inhibited activity at 10 uM by less than 20%)
CCC(=O)N[C@H](Cc1ccc(NC(=O)[C@@H](Nc2nccn3nccc23)C2CCCCC2)c(F)c1)C(=O)N1CCN(C)CC1 [Compound 540]	X2b (compounds were evaluated up to 1 uM and inhibited activity at 1 uM by less than 20%)
CCC(=O)N[C@@H](C(=O)N1CCN(C)CC1)[C@@H](C)c1ccc(NC(=O)[C@H](NC(=O)c2ccnn2CC)[C@H]2CC[C@H](C)CC2)c(F)c1 [Compound 541]	X3b (compounds were evaluated up to 0.3 uM and inhibited activity at 0.3 uM by less than 20%)
CCC(=O)N[C@H](C(=O)N1CCN(C)CC1)[C@H](C)c1ccc(NC(=O)[C@@H](NC(=O)c2ccnn2CC)[C@H]2CC[C@H](C)CC2)c(F)c1 [Compound 542]	X3b (compounds were evaluated up to 0.3 uM and inhibited activity at 0.3 uM by less than 20%)

Same assay, conditions: HEK-Blue IL-17A reporter cell line, SEAP readout at A630, 20 hours incubation with IL-17A/A; top concentration 10 uM, 1 uM or 0.3 uM; read-out: IL-17A/A inhibition (pIC50) (converted)

Structure (SMILES)	IC50 [nM]
CCc1nonc1C(=O)N[C@H](C(=O)Nc1ccc([C@H](C)[C@@H](NC(=O)C(C)C)C(=O)N2CCN(C)CC2)cc1F)[C@H]1CC[C@H](C)CC1 [Compound 494]	< 10
CCc1nonc1C(=O)N[C@H](C(=O)Nc1ccc([C@H](C)[C@@H](NC(=O)C(C)(C)F)C(=O)N2CCN(C)CC2)cc1F)[C@H]1CC[C@H](C)CC1 [Compound 495]	10 to 100
CCc1nonc1C(=O)N[C@H](C(=O)Nc1ccc([C@H](C)[C@@H](NC(=O)[C@H](C)OC)C(=O)N2CCN(C)CC2)cc1F)[C@H]1CC[C@H](C)CC1 [Compound 497]	< 10
CCc1nonc1C(=O)N[C@H](C(=O)Nc1ccc([C@H](C)[C@@H](NC(=O)[C@@H]2CCCO2)C(=O)N2CCN(C)CC2)cc1F)[C@H]1CC[C@H](C)CC1 [Compound 498]	10 to 100
CCc1nonc1C(=O)N[C@H](C(=O)Nc1ccc([C@H](C)[C@@H](NC(=O)COC)C(=O)N2CCN(C)CC2)cc1F)[C@H]1CC[C@H](C)CC1 [Compound 499]	< 10
CCc1nonc1C(=O)N[C@H](C(=O)Nc1ccc([C@H](C)[C@@H](NC(=O)[C@@H](C)F)C(=O)N2CCN(C)CC2)cc1F)[C@H]1CC[C@H](C)CC1 [Compound 500]	< 10
CCc1nonc1C(=O)N[C@H](C(=O)Nc1ccc([C@H](C)[C@@H](NC(=O)C(C)(F)F)C(=O)N2CCN(C)CC2)cc1F)[C@H]1CC[C@H](C)CC1 [Compound 501]	10 to 100
CCc1nonc1C(=O)N[C@H](C(=O)Nc1ccc([C@H](C)[C@@H](NC(=O)C(C)(F)F)C(=O)N2CCN(C)[C@H](C)C2)cc1F)[C@H]1CC[C@H](C)CC1 [Compound 503]	10 to 100
CCc1nonc1C(=O)N[C@H](C(=O)Nc1ccc([C@H](C)[C@@H](NC(=O)C(F)(F)CC)C(=O)N2CCN(C)[C@H](C)C2)cc1F)[C@H]1CC[C@H](C)CC1 [Compound 504]	< 10
CCc1nonc1C(=O)N[C@H](C(=O)Nc1ccc([C@H](C)[C@@H](NC(=O)C2(F)CCC2)C(=O)N2CCN(C)[C@H](C)C2)cc1F)[C@H]1CC[C@H](C)CC1 [Compound 505]	10 to 100
CCc1nonc1C(=O)N[C@H](C(=O)Nc1ccc([C@H](C)[C@@H](NC(=O)CC2CC2)C(=O)N2CCN(C)[C@@H](C)C2)cc1F)[C@H]1CC[C@H](C)CC1 [Compound 506]	< 10
CCc1nonc1C(=O)N[C@H](C(=O)Nc1ccc([C@H](C)[C@@H](NC(=O)N(C)C2CC2)C(=O)N2CCN(C)[C@H](C)C2)cc1F)[C@H]1CC[C@H](C)CC1 [Compound 508]	< 10
CCc1nonc1C(=O)N[C@H](C(=O)Nc1ccc([C@H](C)[C@@H](NC(=O)N(C)C2CC2)C(=O)N2CCN(C)[C@@H](C)C2)cc1F)[C@H]1CC[C@H](C)CC1 [Compound 509]	10 to 100
CCc1nonc1C(=O)N[C@H](C(=O)Nc1ccc([C@H](C)[C@@H](NC(=O)N(C)C2CC2)C(=O)N2CCN(C)CC2)cc1F)[C@H]1CC[C@H](C)CC1 [Compound 513]	< 10
CCc1nonc1C(=O)N[C@H](C(=O)Nc1ccc([C@H](C)[C@@H](NC(=O)N(C)C)C(=O)N2CCN(C)CC2)cc1F)[C@H]1CC[C@H](C)CC1 [Compound 514]	< 10
CCc1nonc1C(=O)N[C@H](C(=O)Nc1ccc([C@H](C)[C@@H](NC(=O)N2CCCC2)C(=O)N2CCN(C)CC2)cc1F)[C@H]1CC[C@H](C)CC1 [Compound 515]	10 to 100
CCc1nonc1C(=O)N[C@H](C(=O)Nc1ccc([C@H](C)[C@@H](NC(=O)N(C)C2CCC2)C(=O)N2CCN(C)CC2)cc1F)[C@H]1CC[C@H](C)CC1 [Compound 516]	< 10
CCc1nonc1C(=O)N[C@H](C(=O)Nc1ccc([C@H](C)[C@@H](NC(=O)NC2CC2)C(=O)N2CCN(C)CC2)cc1F)[C@H]1CC[C@H](C)CC1 [Compound 517]	< 10

Structure (SMILES)	IC50 [nM]
CCc1nonc1C(=O)N[C@H](C(=O)Nc1ccc([C@H](C)[C@@H](NS(=O)(=O)CC)C(=O)N2CCN(C)CC2)cc1F)[C@H]1CC[C@H](C)CC1 [Compound 518]	10 to 100
CCC(=O)N[C@@H](C(=O)N1CCN(C)CC1)[C@@H](C)c1ccc(NC(=O)C(NC(=O)c2nonc2CC)C(C)c2ccccc2Cl)c(F)c1 (some centres unmarked) [Compound 521]	100 to 10000
CCC(=O)N[C@@H](C(=O)N1CCN(C)CC1)[C@@H](C)c1ccc(NC(=O)[C@@H](NC(=O)C(F)(F)c2cnn(CC)c2)[C@H]2CC[C@H](C)CC2)c(F)c1 [Compound 523]	< 10
CCC(=O)N[C@@H](C(=O)N1CCN(C)CC1)[C@@H](C)c1ccc(NC(=O)[C@@H](NC(=O)c2occc2CC)[C@H]2CC[C@H](C)CC2)c(F)c1 [Compound 524]	10 to 100
CCn1nnnc1C(=O)N[C@H](C(=O)Nc1ccc([C@H](C)[C@@H](NC(=O)c2cnns2)C(=O)N2CCN(C)CC2)cc1F)[C@H]1CC[C@H](C)CC1 [Compound 525]	10 to 100
C[C@@H](c1ccc(NC(=O)[C@@H](NC(=O)c2coc3ccncc23)[C@H]2CC[C@H](C)CC2)c(F)c1)[C@@H](NC(=O)c1cnns1)C(=O)N1CCN(C)CC1 [Compound 526]	10 to 100
CCC(=O)N[C@@H](C(=O)N1CCN(C)CC1)[C@@H](C)c1ccc(NC(=O)[C@@H](NC(=O)c2nnnn2CC)[C@H]2CC[C@H](C)CC2)c(F)c1 [Compound 527]	10 to 100
CCC(=O)N[C@@H](C(=O)N1CCN(C)CC1)[C@@H](C)c1ccc(NC(=O)[C@@H](NC(=O)C(F)(F)c2cncc(C#N)c2)[C@H]2CC[C@H](C)CC2)c(F)c1 [Compound 530]	< 10
CCC(=O)N[C@@H](C(=O)N1CCC(O)CC1)[C@@H](C)c1ccc(NC(=O)[C@@H](NC(=O)c2cnn(C3CCCC3)c2)[C@H]2CC[C@H](C)CC2)c(F)c1 [Compound 531]	10 to 100
CCC(=O)N[C@@H](C(=O)N1CCN(Cc2ccccc2)CC1)[C@@H](C)c1ccc(NC(=O)[C@@H](NC(=O)C(F)(F)c2cncc(OC)c2)[C@H]2CC[C@H](C)CC2)c(F)c1 [Compound 532]	10 to 100
CCC(=O)N[C@@H](C(=O)N1CCC(C)(O)CC1)[C@@H](C)c1ccc(NC(=O)[C@@H](NC(=O)C(F)(F)c2cnn(CC)c2)[C@H]2CC[C@H](C)CC2)c(F)c1 [Compound 533]	< 10
CCC(=O)N[C@@H](C(=O)N1CCC(F)(F)CC1)[C@@H](C)c1ccc(NC(=O)[C@@H](NC(=O)c2conc2C(C)(C)N)[C@H]2CC[C@H](C)CC2)c(F)c1 [Compound 534]	10 to 100
CCn1nccc1C(=O)N[C@H](C(=O)Nc1ccc([C@H](C)[C@@H](NC(=O)C2CC2)C(=O)N2CCN(C)CC2)cc1F)C1CCCCCC1 [Compound 535]	< 10
C[C@@H](c1ccc(NC(=O)[C@@H](NC(=O)C(F)(F)C2CC2)C2CCCCCC2)c(F)c1)[C@@H](NC(=O)c1cnns1)C(=O)N1CCN(C)CC1 [Compound 536]	10 to 100
CCC(=O)N[C@@H](C(=O)N[C@@H](C)C1CC1)[C@@H](C)c1ccc(NC(=O)[C@@H](NC(=O)c2ccnn2CC)C2CCCCCC2)c(F)c1 [Compound 537]	10 to 100
CCC(=O)N[C@@H](C(=O)NCC1CCC1)[C@@H](C)c1ccc(NC(=O)[C@@H](NC(=O)c2ccnn2CC)C2CCCCCC2)c(F)c1 [Compound 538]	< 10
[2H]C([2H])([2H])N1CCN(C(=O)[C@H](NC(=O)CC)[C@@H](C)c2ccc(NC(=O)[C@@H](NC(=O)c3ccnn3CC)[C@H]3CC[C@H](C)CC3)c(F)c2)CC1 [Compound 539]	< 10
